This is an account of results in ChEMBL document CHEMBL5537163, “Discovery of Novel Phenoxyaryl Pyridones as Bromodomain and Extra-Terminal Domain (BET) Inhibitors with High Selectivity for the Second Bromodomain (BD2) to Potentially Treat Acute Myeloid Leukemia” (J Med Chem, 2024).

Assay [1] deals with T1, Voltage-gated inwardly rectifying potassium channel KCNH2 (Homo sapiens, UniProt Q12809). Kind of assay: Inhibition of hERG in HEK293 cells at -80 mV holding potential by automated patch clamp electrophysiology. It is filed as toxicity, cell-based. (In general: Block of hERG is tested as a sign of cardiac risk.)
T1 sequence (Q12809 whole entry): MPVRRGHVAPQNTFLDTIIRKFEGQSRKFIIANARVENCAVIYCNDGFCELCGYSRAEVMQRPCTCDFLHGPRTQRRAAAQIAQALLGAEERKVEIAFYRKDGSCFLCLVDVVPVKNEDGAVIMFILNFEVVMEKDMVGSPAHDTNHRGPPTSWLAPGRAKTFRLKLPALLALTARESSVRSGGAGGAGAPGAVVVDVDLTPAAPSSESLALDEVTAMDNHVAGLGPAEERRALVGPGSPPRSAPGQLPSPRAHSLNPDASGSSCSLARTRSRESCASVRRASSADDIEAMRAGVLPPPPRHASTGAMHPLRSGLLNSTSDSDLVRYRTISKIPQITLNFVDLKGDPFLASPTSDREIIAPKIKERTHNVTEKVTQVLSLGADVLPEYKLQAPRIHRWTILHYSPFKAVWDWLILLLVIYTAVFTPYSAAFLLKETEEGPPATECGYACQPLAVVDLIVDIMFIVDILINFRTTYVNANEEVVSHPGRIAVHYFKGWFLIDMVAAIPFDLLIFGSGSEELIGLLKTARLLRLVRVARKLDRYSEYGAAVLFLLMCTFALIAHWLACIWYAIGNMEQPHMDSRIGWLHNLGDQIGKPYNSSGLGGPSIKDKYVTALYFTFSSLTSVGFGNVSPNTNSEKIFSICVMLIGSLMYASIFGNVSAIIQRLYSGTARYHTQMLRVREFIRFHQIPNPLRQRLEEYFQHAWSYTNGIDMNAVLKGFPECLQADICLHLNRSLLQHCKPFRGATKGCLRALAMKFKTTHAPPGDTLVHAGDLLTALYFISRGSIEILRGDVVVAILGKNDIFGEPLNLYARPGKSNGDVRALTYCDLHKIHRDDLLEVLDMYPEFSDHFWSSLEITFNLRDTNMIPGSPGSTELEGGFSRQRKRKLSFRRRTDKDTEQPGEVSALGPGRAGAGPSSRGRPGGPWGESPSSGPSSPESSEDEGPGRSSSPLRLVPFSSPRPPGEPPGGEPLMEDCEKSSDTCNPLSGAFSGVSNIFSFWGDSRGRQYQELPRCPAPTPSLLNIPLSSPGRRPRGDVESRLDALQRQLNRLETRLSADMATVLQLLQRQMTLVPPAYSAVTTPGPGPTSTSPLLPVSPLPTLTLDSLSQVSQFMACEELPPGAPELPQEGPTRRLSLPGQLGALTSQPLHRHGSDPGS
The target of assay [2] is T2, Bromodomain-containing protein 3 (Homo sapiens, UniProt Q15059). Briefly: Inhibition of BRD3 BD2 (unknown origin) using biotinylated tetra-acetylated H4 peptide SGRG-K(Ac)-GG-K(Ac)-GLG-K(Ac)-GGA-K(Ac)-RHRK-Biotin as substrate incubated for 1 hr by TR-FRET assay. A general note: TR-FRET usually uses a lanthanide donor and a delayed reading to cut background.
T2 sequence (Q15059 whole entry): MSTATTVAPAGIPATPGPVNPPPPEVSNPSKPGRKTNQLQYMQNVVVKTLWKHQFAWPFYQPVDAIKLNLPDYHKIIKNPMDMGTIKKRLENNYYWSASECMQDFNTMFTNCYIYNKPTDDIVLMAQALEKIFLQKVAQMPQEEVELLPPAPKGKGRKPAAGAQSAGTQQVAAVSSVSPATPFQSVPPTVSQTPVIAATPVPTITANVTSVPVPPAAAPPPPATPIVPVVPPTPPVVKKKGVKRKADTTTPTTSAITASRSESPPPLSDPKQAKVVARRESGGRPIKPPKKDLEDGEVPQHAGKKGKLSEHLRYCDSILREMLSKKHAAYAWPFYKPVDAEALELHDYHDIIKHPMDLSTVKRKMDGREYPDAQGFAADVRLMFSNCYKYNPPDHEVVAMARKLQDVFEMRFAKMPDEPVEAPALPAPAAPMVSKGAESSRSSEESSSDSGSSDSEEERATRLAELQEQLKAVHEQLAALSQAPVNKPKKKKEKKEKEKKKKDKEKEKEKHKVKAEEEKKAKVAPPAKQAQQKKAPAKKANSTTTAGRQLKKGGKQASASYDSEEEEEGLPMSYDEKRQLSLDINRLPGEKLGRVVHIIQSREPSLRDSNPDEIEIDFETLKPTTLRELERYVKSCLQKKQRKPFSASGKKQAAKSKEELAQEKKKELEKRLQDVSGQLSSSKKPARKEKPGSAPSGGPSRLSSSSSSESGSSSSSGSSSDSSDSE
Assay [3] concerns the target T3, Bromodomain testis-specific protein (Homo sapiens, UniProt Q58F21). Briefly: Inhibition of BRDT BD2 (unknown origin) using biotinylated tetra-acetylated H4 peptide SGRG-K(Ac)-GG-K(Ac)-GLG-K(Ac)-GGA-K(Ac)-RHRK-Biotin as substrate incubated for 1 hr by TR-FRET assay.
Assay [4] addresses T4, Bromodomain-containing protein 2 (Homo sapiens, UniProt P25440). Kind of assay: Inhibition of BRD2 BD2 (unknown origin) using biotinylated tetra-acetylated H4 peptide SGRG-K(Ac)-GG-K(Ac)-GLG-K(Ac)-GGA-K(Ac)-RHRK-Biotin as substrate incubated for 1 hr by TR-FRET assay.
Assay [5] concerns the target T4, Bromodomain-containing protein 2. Kind of assay: Inhibition of BRD2 BD1 (unknown origin) using biotinylated tetra-acetylated H4 peptide SGRG-K(Ac)-GG-K(Ac)-GLG-K(Ac)-GGA-K(Ac)-RHRK-Biotin as substrate incubated for 1 hr by TR-FRET assay.
The target of assay [6] is T2, Bromodomain-containing protein 3. Briefly: Inhibition of BRD3 BD1 (unknown origin) using biotinylated tetra-acetylated H4 peptide SGRG-K(Ac)-GG-K(Ac)-GLG-K(Ac)-GGA-K(Ac)-RHRK-Biotin as substrate incubated for 1 hr by TR-FRET assay.
Assay [7] has as its target T3, Bromodomain testis-specific protein. Kind of assay: Inhibition of BRDT BD1 (unknown origin) using biotinylated tetra-acetylated H4 peptide SGRG-K(Ac)-GG-K(Ac)-GLG-K(Ac)-GGA-K(Ac)-RHRK-Biotin as substrate incubated for 1 hr by TR-FRET assay.
Assay [8] has as its target T1, Voltage-gated inwardly rectifying potassium channel KCNH2. Briefly: Inhibition of hERG expressed in HEK293 cells at -80 mV holding potential by whole-cell patch clamp technique. It is filed as toxicity, cell-based.
The next assay relates to MOLM-13. Briefly: Antiproliferative activity against human MOLM-13 cells assessed as inhibition of cell proliferation incubated for 72 hrs by CellTiterGlo luminescence assay. The assay is classed as functional, cell-based. The settings on record: MOLM-13, 72 h. (ATP-based viability assays read luminescence as a measure of living cells.)
Assay [9] concerns MV4-11. Briefly: Antitumor activity against human MV4-11 cells xenografted in BALB/c nude mouse assessed as tumor growth inhibition at 37.5 mg/kg, po administered once daily for 21 days and measured every other day relative to control. The assay is classed as functional. Conditions: MV4-11, 504 h, time 21 day, read-out: TGI.
Assay [10] relates to MV4-11. Briefly: Antiproliferative activity against human MV4-11 cells assessed as inhibition of cell proliferation incubated for 72 hrs by CellTiterGlo luminescence assay. The assay is classed as functional, cell-based. The settings on record: MV4-11, 72 h.

T4 sequence (P25440 whole entry): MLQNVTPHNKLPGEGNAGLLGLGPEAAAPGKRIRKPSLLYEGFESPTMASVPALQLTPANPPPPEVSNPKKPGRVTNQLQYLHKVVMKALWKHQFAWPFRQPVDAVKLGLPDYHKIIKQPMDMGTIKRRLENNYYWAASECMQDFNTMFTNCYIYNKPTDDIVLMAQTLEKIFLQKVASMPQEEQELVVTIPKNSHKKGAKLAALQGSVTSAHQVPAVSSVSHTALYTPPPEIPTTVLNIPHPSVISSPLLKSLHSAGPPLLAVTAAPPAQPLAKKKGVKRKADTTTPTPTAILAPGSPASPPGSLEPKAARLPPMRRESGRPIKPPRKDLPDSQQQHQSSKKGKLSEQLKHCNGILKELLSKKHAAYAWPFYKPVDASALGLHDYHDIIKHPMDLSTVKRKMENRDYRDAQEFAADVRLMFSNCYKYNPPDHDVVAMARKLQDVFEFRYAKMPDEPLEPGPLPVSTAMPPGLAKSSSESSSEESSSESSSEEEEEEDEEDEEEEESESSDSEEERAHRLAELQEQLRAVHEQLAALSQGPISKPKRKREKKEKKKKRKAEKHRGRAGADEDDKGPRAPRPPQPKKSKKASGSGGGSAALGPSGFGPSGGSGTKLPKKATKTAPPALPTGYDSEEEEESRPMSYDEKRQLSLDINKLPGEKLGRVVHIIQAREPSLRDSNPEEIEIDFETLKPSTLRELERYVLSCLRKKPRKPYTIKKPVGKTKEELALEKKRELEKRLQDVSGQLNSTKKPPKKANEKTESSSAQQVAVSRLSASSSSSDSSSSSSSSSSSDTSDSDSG

The IC50 is the point on the concentration scale where inhibition reaches its midpoint. As to `CCNC(=O)COc1cc(=O)n(C)cc1-c1cc(C(C)(C)O)ccc1Oc1c(C)cccc1C`, the IC50 in assay [1] was > 30 µM.

Consider `Cc1cc(F)cc(C)c1Oc1ccc(C(C)(C)O)cc1-c1cn(C)c(=O)cc1NCC(=O)N1CCOCC1`, for which the half-inhibitory concentration (IC50) in assay [2] was 0.0159 µM; in assay [3], 0.0097 µM; in assay [4], 0.0111 µM; in assay [5] it was 13.5 µM; in assay [1] it was > 30 µM; in assay [6] it was 12.8 µM. For the same compound, half-maximal inhibition in assay [7] (IC50) required 4.39 µM.

Regarding `CCNC(=O)c1cc2c(-c3cc(C(C)(C)O)ccc3Oc3c(C)cc(F)cc3C)cn(C)c(=O)c2[nH]1` [ABBV-744], the 50% inhibitory concentration (IC50) in [8] was 3.1 µM; in assay [1], 2.8 µM; in the assay with MOLM-13 it was 0.039 µM; in the assay with MV4-11 [10], 0.015 µM. In addition, the inhibition in vivo at 37.5 mg/kg in the assay on MV4-11 [9] was 55%.
